Measurements taken from patent US7976877B2, “Use of knotwood extracts” (Oy Arbonova Ab, priority 2003, dated 2011).
pIC50: −log10 of the molar value.

How the values were obtained:
Format in all cases: biochemical
[1] = Scavenging of superoxide radicals in vitro (xanthine-xanthine oxidase system, lucigenin chemiluminescence)
Description: (§1) Estimation of free radical trapping capacity. The capacity of the extracts, fractions thereof and the pure compounds to trap superoxide (oxygen radical) and peroxyl radicals was estimated by chemiluminescence-based methodology (17). Superoxide anions were produced by xanthine-xanthine oxidase system as follows. 20 μL of xanthine oxidase (420 mU/mL), 0.02 mL of 5 mM lucigenin, 0.02 mL of 200 mM linoleic acid dissolved in 50 mM KOH, 0.78 mL of 50 mM potassium phosphate buffer, pH 10.0, and test samples were pipetted in cuvettes. The reaction was initiated by the automated dispensing of 0.11 mL of 1.45 mM xanthine (final volume 1.0 mL). Chemiluminescence in duplicate samples at 35° C. was measured for 6 min in 1-min cycles. Peroxyl radicals were generated by thermal decomposition of 2,2′-azobis(2-amidinopropane)-hydrochloride as follows. 0.45 mL of 0.1 M sodium phosphate buffer, pH 7.4, containing 0.9% NaCl, 0.02 mL of 120 mM linoleic acid, 0.05 mL of luminol (0.5 mg/mL) and test compounds were mixed in the cuvette. The assay was initiated by 0.05 mL of ABAP (83 mg/mL). Chemiluminescence in triplicate cuvettes at 37° C. was measured until a peak value for each sample was detected. The half-peak time point defined the peroxyl radical trapping capacity.

[2] = system: t-butylhydroperoxide (t-BuOOH) induced lipid peroxidation in rat liver microsomes; assay: Inhibition of t-BuOOH induced lipid peroxidation in rat liver microsomes in vitro (luminol-enhanced chemiluminescence)
Excerpt: Estimation of inhibition of lipid peroxidation. The antioxidant properties of the extracts, fractions thereof and the pure compounds were estimated by their potency to inhibit t-butylhydroperoxide (t-BuOOH) induced lipid peroxidation in rat liver microsomes in vitro (17) and by their capacity to trap superoxide (oxygen radical) and peroxyl radicals, estimated by chemiluminescence-based methodology (17). The lipid peroxidation was detected by luminol-enhanced chemiluminescence. Test compounds or extracts were added to incubation mixtures in a small volume (2% of incubation volume), and the lipid peroxidation potency was compared to that of the vehicle (ethanol). Assays for the t-BuOOH-initiated lipid peroxidation was performed as follows. The buffer (50 mM sodium carbonate, pH 10.2, with 0.1 mM EDTA) was pipetted in a volume of 0.8 mL in the luminometer cuvette. 20 μL of diluted rat liver microsomes (final concentration 1.5 μg protein/mL) was added, followed by 6 μL of luminol (0.5 mg/mL) and test chemicals. The reaction was initiated by 0.05 mL of 0.9 mM t-BuOOH at 33° C. The chemiluminescence was measured for 45 min at 1 min cycles. The tests were repeated two to four times on separate days. Variation between assays were <10%.

[3] = Scavenging of peroxyl radicals in vitro (thermal decomposition of ABAP, luminol chemiluminescence); details: for Stoichiometric factor (peroxyl radicals), range over the two test series: Series 1 and 2 together
Description: as §1

[4] = knotwood extracts, fractions and reference compounds
[5] = Series 1, pure compounds, rat liver microsomes
[6] = knotwood extracts, fractions and reference compounds, rat liver microsomes
[7] = Series 2, pure compounds, different batch of rat liver microsomes

Structure (SMILES) | pIC50 ([1]; Series 1, pure compounds) | pIC50 [2, 5] | Scavenging of superoxide radicals in vitro, IC50 ([1]; Series 1, pure compounds) | Inhibition of lipid peroxidation in vitro, IC50 [2, 5] | pIC50 [2, 7] | Inhibition of lipid peroxidation in vitro, IC50 [2, 7] | Scavenging of superoxide radicals in vitro, IC50 [1, 4] | Inhibition of lipid peroxidation in vitro, IC50 [2, 6] | Stoichiometric factor (peroxyl radicals scavenged per mole of compound) ([3]; Series 1, pure compounds) | Trapping capacity (peroxyl radicals scavenged per gram) ([3]; Series 1, pure compounds) | Stoichiometric factor (peroxyl radicals scavenged per mole of compound) ([3]; Series 2, pure compounds) | Trapping capacity (peroxyl radicals scavenged per gram) ([3]; Series 2, pure compounds) | Scavenging of superoxide radicals in vitro, IC50 ([1]; Series 1, pure compounds, listed as nortrachelogenin) | Scavenging of superoxide radicals in vitro, IC50 ([1]; Series 1, pure compounds, listed as secoisolariciresinol) | Stoichiometric factor (peroxyl radicals), range over the two test series [3] | Trapping capacity (peroxyl radicals scavenged per gram) ([3]; knotwood extracts, fractions and reference compound)
COc1ccc(O)c(C(C)(C)C)c1 [BHA, butylated hydroxyanisole, reference compound] | 7.82 | 5.96 | – | – | – | – | 0.0027 µg/mL | 0.198 µg/mL | – | – | – | – | – | – | – | –
COc1cc(C[C@H]2COC(=O)[C@@H]2Cc2ccc(O)c(OC)c2)ccc1O [Matairesinol] | 7.40 | 6.55 | 0.014 µg/mL | 0.099 µg/mL | – | – | – | – | 1.0 mole/mole | 2.9 mmol/g | – | – | – | – | – | –
COc1cc(C[C@@H](CO)[C@H](CO)Cc2ccc(O)c(OC)c2)ccc1O [Secoisolariciresinol] | 8.32 | 7.00 | 0.0018 µg/mL | 0.037 µg/mL | 6.82 | 0.054 µg/mL | – | – | 3.1 mole/mole | 8.5 mmol/g | 4.0 mole/mole | 11 mmol/g | – | more effective scavengers than both BHA and Trolox | 3.1-4.0 mole/mole | –

More lines, main results first:

pIC50 ([1]; Series 1, pure compounds) | pIC50 [2, 5] | Scavenging of superoxide radicals in vitro, IC50 ([1]; Series 1, pure compounds) | Inhibition of lipid peroxidation in vitro, IC50 [2, 5] | pIC50 [2, 7] | Inhibition of lipid peroxidation in vitro, IC50 [2, 7] | Structure (SMILES) | Scavenging of superoxide radicals in vitro, IC50 [1, 4] | Inhibition of lipid peroxidation in vitro, IC50 [2, 6] | Stoichiometric factor (peroxyl radicals scavenged per mole of compound) ([3]; Series 1, pure compounds) | Trapping capacity (peroxyl radicals scavenged per gram) ([3]; Series 1, pure compounds) | Stoichiometric factor (peroxyl radicals scavenged per mole of compound) ([3]; Series 2, pure compounds) | Trapping capacity (peroxyl radicals scavenged per gram) ([3]; Series 2, pure compounds) | Scavenging of superoxide radicals in vitro, IC50 ([1]; Series 1, pure compounds, listed as nortrachelogenin) | Scavenging of superoxide radicals in vitro, IC50 ([1]; Series 1, pure compounds, listed as secoisolariciresinol) | Stoichiometric factor (peroxyl radicals), range over the two test series [3] | Trapping capacity (peroxyl radicals scavenged per gram) ([3]; knotwood extracts, fractions and reference compound)
6.66 | 6.82 | 0.081 µg/mL | 0.058 µg/mL | 6.74 | 0.067 µg/mL | COc1cc(C[C@H]2C(=O)OC[C@@H]2[C@H](O)c2ccc(O)c(OC)c2)ccc1O [Hydroxymatairesinol] | – | – | 2.1 mole/mole | 5.6 mmol/g | 2.7 mole/mole | 7.3 mmol/g | – | – | – | –
7.46 | 6.46 | 0.013 µg/mL | 0.126 µg/mL | 6.77 | 0.063 µg/mL | COc1cc(C[C@H]2CO[C@H](c3ccc(O)c(OC)c3)[C@H]2CO)ccc1O [Lariciresinol] | – | – | 1.0 mole/mole | 2.7 mmol/g | 2.6 mole/mole | 7.3 mmol/g | – | – | – | –
8.85 | 6.85 | 0.00053 µg/mL | 0.053 µg/mL | 6.72 | 0.07 µg/mL | COc1cc(CC2COC(=O)C2(O)Cc2ccc(O)c(OC)c2)ccc1O (centres unmarked) [Nortrachelogenin] | – | – | 2.2 mole/mole | 5.9 mmol/g | 2.0 mole/mole | 5.3 mmol/g | more effective scavengers than both BHA and Trolox | – | – | –
7.60 | 7.70 | – | – | 6.74 | 0.046 µg/mL | Cc1c(C)c2c(c(C)c1O)CCC(C)(C(=O)O)O2 (centres unmarked) [Trolox, 6-hydroxy-2,5,7,8-tetramethylchroman-2-carboxylic acid, reference compound] | 0.0063 µg/mL | 0.005 µg/mL | 2.0 mole/mole | 8.0 mmol/g | 1.7 mole/mole | 6.8 mmol/g | – | – | 1.7-2.0 mole/mole | 8.0 mmol/g
